The record followed here is ChEMBL document CHEMBL1140555, “Synthesis and evaluation of novel pyrazolidinone analogs of PGE2 as EP2 and EP4 receptors agonists” (Bioorg Med Chem Lett, 2007).

Data set [1] deals with T1, Prostaglandin E2 receptor EP4 subtype (Homo sapiens, UniProt P35408). Kind of data set: Binding affinity at human prostaglandin EP4 receptor.
In data set [2] the target is T2, Prostaglandin E2 receptor EP2 subtype (Homo sapiens, UniProt P43116). The experiment in a line: Binding affinity at human prostaglandin EP2 receptor.
Data set [3] deals with T2, Prostaglandin E2 receptor EP2 subtype. The experiment in a line: Agonist activity at human prostaglandin EP2 receptor. Type of data set: functional.
For another data set, the species on record is Homo sapiens. The experiment in a line: Selectivity for human EP4 over human EP2 receptor.
In data set [4] the target is T1, Prostaglandin E2 receptor EP4 subtype. Kind of data set: Agonist activity at human prostaglandin EP4 receptor. Type of data set: functional.
A short description of data set [5]: Half life in rat. It counts as ADME, organism-based. The conditions noted are these: in vivo.
Data set [6] is described as follows: Apparent permeability of the compound. It counts as ADME. The conditions noted are these: not told.
The nature of data set [7]: Metabolic stability in rat liver microsomes after 1 hr. Type of data set: ADME, Microsome. The note with it: read-out: Stability.
Data set [8] in a line: Fraction unbound ligand in rat. Type of data set: ADME.
The nature of data set [9]: Solubility in saline. Type of data set: physicochemical.
Data set [10] is described as follows: Metabolic stability in human liver microsomes after 1 hr. It counts as ADME, Microsome. The note with it: read-out: Stability. (In general: Liver microsomes are vesicles of endoplasmic reticulum, rich in cytochrome P450 enzymes.)
Another data set relates to Mus musculus. The experiment in a line: Induction of ovulation in sc dosed CD1 mouse. Type of data set: functional, organism-based.
A short description of data set [11]: Solubility in HBSS. It counts as physicochemical.
A short description of data set [12]: Oral bioavailability in rat. The conditions noted are these: in vivo. It counts as ADME, organism-based.

≈ marks a conversion by molar mass, not a printed value. Some results are limits rather than exact numbers.

T2 sequence (P43116 whole entry): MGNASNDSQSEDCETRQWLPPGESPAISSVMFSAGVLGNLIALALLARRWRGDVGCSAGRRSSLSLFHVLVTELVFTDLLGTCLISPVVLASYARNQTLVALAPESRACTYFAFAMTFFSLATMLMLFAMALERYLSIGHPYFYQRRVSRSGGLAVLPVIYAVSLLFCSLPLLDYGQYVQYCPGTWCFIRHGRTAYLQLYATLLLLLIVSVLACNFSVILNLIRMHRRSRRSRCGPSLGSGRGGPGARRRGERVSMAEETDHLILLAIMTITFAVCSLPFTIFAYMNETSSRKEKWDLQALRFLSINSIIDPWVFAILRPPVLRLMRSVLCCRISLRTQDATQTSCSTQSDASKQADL
T1 sequence (P35408 whole entry): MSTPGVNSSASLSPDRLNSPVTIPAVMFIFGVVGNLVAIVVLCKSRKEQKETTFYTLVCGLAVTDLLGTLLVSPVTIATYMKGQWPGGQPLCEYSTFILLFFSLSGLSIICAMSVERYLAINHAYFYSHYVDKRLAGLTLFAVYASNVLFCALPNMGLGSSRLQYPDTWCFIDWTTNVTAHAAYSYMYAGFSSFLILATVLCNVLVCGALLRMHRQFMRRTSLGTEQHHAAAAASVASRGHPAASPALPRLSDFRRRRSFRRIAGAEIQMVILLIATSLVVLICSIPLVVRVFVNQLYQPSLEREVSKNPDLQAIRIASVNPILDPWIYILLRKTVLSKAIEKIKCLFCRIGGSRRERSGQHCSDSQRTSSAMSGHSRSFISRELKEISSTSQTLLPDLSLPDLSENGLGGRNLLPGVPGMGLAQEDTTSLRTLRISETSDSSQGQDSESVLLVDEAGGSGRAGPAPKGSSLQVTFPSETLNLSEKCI

For `O=C(O)c1ccc(CCN2C(=O)CCN2CCC(O)Cc2cccc(I)c2)cc1` (stereo unspecified), the figures for the inhibition constant Ki in data set [1] and in data set [2] were 27 nM and 2360 nM, respectively.

With `CC(CCN1CCC(=O)N1CCc1ccc(C(=O)O)cc1)Cc1cccc(CCc2ccccc2)c1` (stereo unspecified), the Ki in data set [1] was found to be 44 nM; in data set [2], 560 nM.

`CCCC1(C(O)CCCN2CCC(=O)N2CCc2ccc(C(=O)O)cc2)CCC1` (stereo unspecified): the Ki in [1] is greater than 50000 nM; in [2], 750 nM. In data set [3], this compound yielded an EC50 of 393 nM.

`CCCCCC(O)CCN1CCC(=O)N1CCc1ccc(C(=O)O)cc1` (stereo unspecified): the Selectivity ratio in the data set filed under Homo sapiens stood at 10.

Turning to `O=C(O)c1ccc(CCN2C(=O)CCN2CCC(O)Cc2cccc(C(F)(F)F)c2)cc1` (stereo unspecified), the Ki in data set [1] came to 57 nM; in data set [2], 6000 nM.

As to `O=C(O)c1ccc(CCN2C(=O)CCN2CC[C@@H](O)Cc2cccc(Br)c2)cc1`, the concentration giving a half-maximal response (EC50) in data set [4] is 0.1 nM; in [3], greater than 10000 nM. Also, the inhibitory constant (Ki) was 13 nM in data set [1] and 3070 nM in data set [2].

Take `O=C(O)c1ccc(CCN2C(=O)CCN2CCC(O)Cc2cccc(Cl)c2)cc1` (stereo unspecified): the response in [4] was half-maximal at 0.2 nM (EC50).

As to `CCCC1([C@H](O)C/C=C/[C@H]2[C@H](O)CC(=O)[C@@H]2CCCCCCC(=O)OC)CCC1` [BUTAPROST], the Ki in data set [1] is greater than 10000 nM; in [2], 110 nM.

For the compound `O=C(O)c1ccc(CCN2C(=O)CCN2CCC(O)Cc2ccccc2)cc1` (stereo unspecified), in the data set filed under Homo sapiens, the Selectivity ratio turned out to be 100.

The compound `O=C(O)c1ccc(CCN2C(=O)CCN2CCC(O)Cc2cccc(Br)c2)cc1` (stereo unspecified) gave a half-life in data set [5] of 4.25 h. The EC50 in data set [4] was 0.2 nM. Besides, the results for the inhibitory constant (Ki) in data set [1] and in data set [2] were 13 nM and 5450 nM, respectively. Moreover, the apparent permeability (Papp) in data set [6] turned out to be 10 ×10⁻⁶ cm/s. The values for the remaining at 1 h in [7] and in data set [10] were 7% and 0%, respectively. This compound also gave an unbound share (fraction unbound) in [8] of 0.61. Besides, the solubility was determined as 840 µg/mL (≈ 1820 µM) in data set [9] and 890 µg/mL (≈ 1930 µM) in data set [11]. For the same compound, in the data set with Mus musculus, the Activity result is “Dose-dependent effect”. Further, the bioavailability in data set [12] is 6.7%.

As for `O=C(O)c1ccc(CCN2C(=O)CCN2CC[C@@H](O)Cc2cccc(I)c2)cc1`, the Ki in data set [1] was determined as 26 nM; in data set [2], 2030 nM.

For the compound `O=C(O)c1ccc(CCN2C(=O)CCN2CC[C@@H](O)Cc2ccccc2)cc1`, the Ki came to 134 nM in data set [1] and 9200 nM in [2].

Turning to `O=C(O)c1ccc(CCN2C(=O)CCN2CCC(O)Cc2cccc(CCC3CC3)c2)cc1` (stereo unspecified), the Ki in data set [1] was 330 nM; in data set [2] it was 8340 nM.

What is called Ki is the dissociation constant of the complex between target and ligand, obtained from inhibition or displacement. A higher Ki goes with a looser hold on the target. A word on the EC50: it is the concentration needed to bring the measured effect to its halfway point. Usually half-life stands for the time in which the quantity being followed falls by half. Higher therefore signals slow decline. What is called Papp is a coefficient for how fast a substance crosses the barrier. For orientation: fraction unbound means free concentration divided by total concentration. Higher therefore signals much free substance. As a reminder, the solubility is the concentration that dissolves in the medium under given conditions. As a reminder, the bioavailability is the share of a dose that reaches the circulation, judged against a reference dose that is usually intravenous. A high value points to good availability.
